Values joined by “and” are separate entries in the source; they are usually repeats but may differ in a detail not shown here. Equal values may be shown once. Read-outs that look alike come from different tables or passages of the source.
Legend:
[1] = system: neddylation of cullin 3; test: Western blot, cullin 3 neddylation in U2OS cells; type: cell-based, human
Method: (§1) Western blotting was performed as described previously. Treated cells were lysed by RIPA buffer supplemented with protease inhibitor. The expression level of indicated proteins was examined by immunoblotting analysis and GAPDH was used as the loading control. Antibodies were purchased commercially: cullin 1 (sc-17775, 1:500 dilution) and cullin 2 (sc-166506, 1:500 dilution) from Santa Cruz Biotech (Santa Cruz, CA); cullin 4A (PA5-14542, 1:1000 dilution), cullin 4B (PA5-50647, 1:1000 dilution), and DCN3 (DCUN1D3, PA5-44000, 1:1000 dilution) from Thermo Fisher Scientific (Wayne, MI); cullin 3 (2759, 1:1000), NRF2 (12721, 1:1000 dilution), HO-1 (70081, 1:1000 dilution), and Bim (2819, 1:1000 dilution) from Cell Signaling Technology (Boston, MA); DCN1 (GWB-E3D700, 1:1000 dilution) from GenWay Biotech (San Diego, CA); and cullin 5 (A302-173A, 1:500 dilution) from Bethyl Labs (Montgomery, TX). Results are representative of two independent experiments.

[2] = Pharmacokinetics: concentrations in mouse plasma and liver; type: in vivo; settings: for concentration at 1 h / concentration at 3 h / concentration at 6 h / concentration at 24 h: male, C57BL/6, mouse, ip
Method: Supplementary Table 2A. Concentrations of DI-1548 in mouse Plasma and liver after the C57BL/6 male mice were treated with a single dose of DI-1548 at 25 mg/kg via intraperitoneal (IP) injection. BLQ: below the limit of quantification.
Time point (h) Plasma (ng /mL) Liver (ng /g)
Supplementary Table 2B. Concentrations of DI-1859 in mouse Plasma and liver after the C57BL/6 male mice were treated with a single dose of DI-1859 at 25 mg/kg via intraperitoneal (IP) injection. BLQ:
Time point (h) Pl asma (ng /mL) Liver (ng /g) […]

[3] = target: T1, DCN1 (Homo sapiens, UniProt Q96GG9); test: Intact-protein mass spectrometric analysis of covalent complex formation, Method A; type: binding; settings: for Percentage of the formation of covalent complex with DCN1 protein: 37 °C
Excerpt: MassHunter Qualitative Analysis software (Agilent) was used to analyze the data. Intact protein masses were obtained using the maximum entropy deconvolution algorithm. The mass spectrometry data in Supplementary Figs. 1–11 were generated by Method A.
Target sequence in this assay (Q96GG9 58-259 limits assumed): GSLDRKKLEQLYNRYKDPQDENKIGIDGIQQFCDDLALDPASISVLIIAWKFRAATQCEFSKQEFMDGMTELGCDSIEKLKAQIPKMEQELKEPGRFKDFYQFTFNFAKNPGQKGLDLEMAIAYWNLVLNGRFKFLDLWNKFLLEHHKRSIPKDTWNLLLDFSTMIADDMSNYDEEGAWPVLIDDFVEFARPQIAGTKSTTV

[4] = target: T1, DCN1; test: Cocrystal structures of lyso-DCN1-inhibitor complexes; parameters: to DCN1 residues 62–251; His6 (N); TEV cleavage site (N); lysozyme residues 1–164 with C54T, C97A, A146T, D127A, R154A (fusion partner, N-terminal of DCN1); made in house; host or cells: Rosetta 2 cells (E. coli)
Method: Lysozyme–DCN1 gene was synthesized fusing lysozyme residues 1–164, containing mutations (C54T, C97A, A146T, D127A, and R154A), to DCN1 residues 62–251. Ligation independent cloning was utilized to clone the fused gene into an N-terminal His6–TEV expression vector. The clone was transformed into Rosetta 2 cells, grown in terrific broth at 37 °C, and expressed overnight with 0.4 mM isopropyl β-D-1-thiogalactopyranoside at 20 °C. Pelleted cells were freeze-thawed and lysed in 25 mM HEPES, pH 7.5, 150 mM NaCl, 0.1% β-mercaptoethanol and protease inhibitors. Cellular debris was removed via centrifugation. The supernatant was loaded onto a Ni-NTA (Qiagen) column at 4 °C. The column was washed with 25 mM HEPES, pH 7.5, 150 mM NaCl, and 20 mM imidazole, then protein eluted with buffer containing 300 mM imidazole. The eluate was applied to a Superdex 200 (GE Healthcare) equilibrated with 25 mM HEPES, pH 7.5, 200 mM NaCl, and 1 mM DTT. The protein was judged to be greater than 95% pure by SDS-PAGE, concentrated to 3.5 mg/mL and stored at −80 °C. Yield was 450 mg/L of expressed media.
Lyso–DCN1 protein was thawed and concentrated to 9.9 mg/mL in 25 mM HEPES, pH 7.5, 200 mM NaCl, and 1 mM DTT. Each compound was incubated with protein in a 1:1.2 protein to compound molar ratio overnight at 4 °C, then spun and setup in sitting drop vapor diffusion experiments. Crystallization drops contained 2 µL of protein–inhibitor solution and 1 µL of well solution. Crystals grew at 20 °C with well solution containing 28–33% PEG 3350 and 200 mM ammonium formate. Crystals were cryoprotected in 25 mM HEPES, pH 7.5, 200 mM NaCl, 30% PEG 3350, and 1 mM DTT.
Diffraction data were collected at a wavelength of 0.9786 Å on the APS LS-CAT 21-ID-G beamline at Argonne National Laboratory. Data were processed using HKL2000[44] and solved via molecular replacement using molrep[45] with two independent search models (lysozyme and DCN1) from PDB ID 5V83. The structures were iteratively fit and refined using Coot[46] and Buster[47]. […]
Target sequence in this assay (Q96GG9 62-251): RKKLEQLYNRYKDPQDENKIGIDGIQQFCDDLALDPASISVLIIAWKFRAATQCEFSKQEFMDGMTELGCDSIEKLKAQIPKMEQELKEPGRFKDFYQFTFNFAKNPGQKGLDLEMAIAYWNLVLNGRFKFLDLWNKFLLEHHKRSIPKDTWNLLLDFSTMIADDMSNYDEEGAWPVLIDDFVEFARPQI

[5] = system: neddylation of cullin 1, 2, 4A, 4B, and 5; test: Western blot, neddylation of other cullin members; type: cell-based, human
Method: as §1

[6] = C57BL/6 male mice, 25 mg/kg IP, 6 h
[7] = C57BL/6 male mice, 25 mg/kg IP, 24 h

C=C(CN1CCOCC1)C(=O)NC[C@@H](NC(=O)[C@H](Cc1nc2ccc(C(C)C)cc2s1)NC(=O)CC)C1CCCCC1 [DI-1548]
concentration as low as which cullin 3 neddylation is inhibited ([1]; 24 h, Fig. 1c): ≤ 1 nM
potency in inhibition of cullin 3 neddylation compared with DI-591 ([1]; 24 h, Fig. 1c): much more potent than DI-591
times more potent than DI-591 in inhibition of cullin 3 neddylation ([1]; 24 h, Fig. 1c): ~ 1000 times
time within which the neddylation of cullin 3 is effectively inhibited ([1]; U2OS, Fig. 6c): ≤ 5 min
time by which the compounds were cleared from systemic circulation ([2]; 25 mg/kg IP): < 3 h
Liver concentration ([2]; C57BL/6 male mice, 25 mg/kg IP, 3 h): BLQ
Liver concentration [2, 6]: BLQ
Plasma concentration [2, 6]: BLQ
Liver concentration [2, 7]: BLQ
Plasma concentration [2, 7]: BLQ
concentration at 1 h ([2]; liver, 25 mg/kg, C57BL/6 male mice, 25 mg/kg IP, 1 h, read-out: Liver concentration): 783 ± 336 ng/g
concentration at 1 h ([2]; liver, 25 mg/kg, mouse liver, IP 25mg/kg, 1h, mean of 3 mice, read-out: Concentration in mouse liver, MEAN): 783 ng/g
concentration at 3 h ([2]; liver, 25 mg/kg, mouse liver, IP 25mg/kg, 3h, mean of 3 mice, read-out: Concentration in mouse liver, MEAN): 3.32 ng/g
concentration at 3 h ([2]; liver, 25 mg/kg, mouse liver, IP 25mg/kg, 3h, single animals, read-out: Concentration in mouse liver, individual mice 1, 2, 3): 3.8 ng/g
concentration at 6 h ([2]; liver, 25 mg/kg, mouse liver, IP 25mg/kg, 6h, mean of 3 mice, read-out: Concentration in mouse liver, MEAN): 2.37 ng/g
concentration at 6 h ([2]; liver, 25 mg/kg, mouse liver, IP 25mg/kg, 6h, single animals, read-out: Concentration in mouse liver, individual mice 1, 2, 3): 2.47 ng/g
concentration at 24 h ([2]; liver, 25 mg/kg, mouse liver, IP 25mg/kg, 24h, mean, read-out: Concentration in mouse liver, MEAN): 1.22 ng/g
concentration at 24 h ([2]; liver, 25 mg/kg, mouse liver, IP 25mg/kg, 24h, single animals, read-out: Concentration in mouse liver, individual mice 1, 2, 3): 1.22 ng/g
concentration at 1 h ([2]; plasma, 25 mg/kg, C57BL/6 male mice, 25 mg/kg IP, 1 h, read-out: Plasma concentration): 1830 ± 319 ng/mL
concentration at 3 h ([2]; plasma, 25 mg/kg, C57BL/6 male mice, 25 mg/kg IP, 3 h, read-out: Plasma concentration): 4.5 ± 3.6 ng/mL
concentration at 1 h ([2]; plasma, 25 mg/kg, mouse plasma, IP 25mg/kg, 1h, mean of 3 mice, read-out: Concentration in mouse plasma, MEAN): 1830 ng/mL
concentration at 1 h ([2]; plasma, 25 mg/kg, mouse plasma, IP 25mg/kg, 1h, single animals, read-out: Concentration in mouse plasma, individual mice 1, 2, 3): 1820 ng/mL
concentration at 3 h ([2]; plasma, 25 mg/kg, mouse plasma, IP 25mg/kg, 3h, mean of 3 mice, read-out: Concentration in mouse plasma, MEAN): 4.47 ng/mL
concentration at 6 h ([2]; plasma, 25 mg/kg, mouse plasma, IP 25mg/kg, 6h, mean (only one mouse above the limit of quantification), read-out: Concentration in mouse plasma, MEAN): 1.12 ng/mL
concentration at 6 h ([2]; plasma, 25 mg/kg, mouse plasma, IP 25mg/kg, 6h, single animals, limit of quantification 1 ng/mL, read-out: Concentration in mouse plasma, individual mice 1, 2, 3): 1.12 ng/mL
concentration at 24 h ([2]; plasma, 25 mg/kg, mouse plasma, IP 25mg/kg, 24h, single animals, limit of quantification 1 ng/mL, read-out: Concentration in mouse plasma, individual mice 1, 2, 3): < 1 ng/mL
Concentration in mouse liver, individual mice 1, 2, 3 ([2]; mouse liver, IP 25mg/kg, 1h, single animals, 25 mg/kg): 766.08 ng/g and 455.81 ng/g and 1128.06 ng/g
Concentration in mouse liver, individual mice 1, 2, 3 ([2]; mouse liver, IP 25mg/kg, 3h, single animals, 25 mg/kg): 2.91 ng/g and 3.26 ng/g
Concentration in mouse liver, individual mice 1, 2, 3 ([2]; mouse liver, IP 25mg/kg, 6h, single animals, 25 mg/kg): 2.85 ng/g and 1.80 ng/g
Concentration in mouse plasma, individual mice 1, 2, 3 ([2]; mouse plasma, IP 25mg/kg, 1h, single animals, 25 mg/kg): 2146.60 ng/mL and 1507.85 ng/mL
Concentration in mouse plasma, individual mice 1, 2, 3 ([2]; mouse plasma, IP 25mg/kg, 3h, single animals, 25 mg/kg): 2.23 ng/mL and 8.63 ng/mL and 2.55 ng/mL
Concentration in mouse plasma, individual mice 1, 2, 3 ([2]; mouse plasma, IP 25mg/kg, 6h, single animals, limit of quantification 1 ng/mL, 25 mg/kg): <1 ng/mL
Concentration in mouse plasma, individual mice 1, 2, 3 ([2]; mouse plasma, IP 25mg/kg, 24h, single animals, limit of quantification 1 ng/mL): <1 ng/mL
covalent complex formation / reaction kinetics with DCN1 protein (in words) [3]: very fast covalent complex formation
Percentage of the formation of covalent complex with DCN1 protein ([3]; 10 min incubation, 1.2-fold excess inhibitor): 100%
Percentage of the formation of covalent complex with DCN1 protein ([3]; 60 min (1 h) incubation): 100%
Percentage of the formation of covalent complex with DCN1 protein ([3]; 180 min (3 h) incubation): 100%
covalent bond to Cys115 of DCN1 in the cocrystal structure [4]: confirmed the covalent nature of these complexes
effect on the neddylation of cullin 1 ([5]; U2OS, treatment time up to 48 h): no effect
selectivity in inhibition of the neddylation of cullin 3 over other cullin members ([5]; a number of cell lines): > 1000 fold and 1000 fold
effect on the neddylation of cullin 1, 2, 4A, 4B, and 5 ([5]; concentrations up to 1000 nM): no obvious effect

Source: article PMC8113459, “Selective inhibition of cullin 3 neddylation through covalent targeting DCN1 protects mice from acetaminophen-induced liver toxicity” (Nature Communications, 2021)
